For assay [1], the system named is high fat fed mice. Kind of assay: Pancreatic insulin content and islet histology after 21 days treatment. Format: in vivo. The procedure: (§1) On day 21, a non-fasted 24 h glucose profile was conducted. […] HOMA-IR was determined using the equation HOMA-IR=fasting glucose (mmol/l)×fasting insulin (mU/l)/22.5. […] Terminal analysis included measurement of total body fat and lean mass by DEXA scanning (Piximus Densitometer, Inside Outside Sales, Madison Wis., USA) and extraction of pancreatic tissue for analysis as detailed below. […] Briefly, pancreatic tissues were fixed in 4% parafolmaldehyde at 4° C. for 48 h. Pancreata were then embedded in paraffin wax and processed using an automated tissue processor (Leica TP1020, Leica Microsystems, Nussloch, Germany). Immunohistochemistry was performed as described by Vasu et al., 2014 (PLoS One. 2014 Jun. 26; 9(6):e101005). […] Abcam, ab6995) or guinea-pig anti-glucagon antibody (PCA2/4, 1:400; raised in-house). […] The slides were viewed under a FITC (488 nm) or TRITC filter (594 nm) using a fluorescent microscope (Olympus system microscope, model BX51) and photographed using a DP70 camera adapter system. Islet parameters were analysed using Cell^F image analysis software (Olympus Soft Imaging Solutions, GmbH). Blood samples were collected from the cut tip on the tail vein of conscious mice into chilled fluoride/heparin glucose micro-centrifuge tubes (Sarstedt, Numbrecht, Germany) at the time points indicated in the Drawings. Blood glucose was measured directly using a hand-held Ascencia Contour blood glucose meter (Bayer Healthcare, Newbury, Berkshire, UK).

The test system of the next assay is BRIN-BD11 cells. Kind of assay: In vitro insulin secretion from BRIN-BD11 cells. The assay is classed as cell-based. As to the method:
BRIN-BD11 cells were used to assess the insulin releasing activity of polypeptides as described by […] et al., 1996 (Diabetes. 1996 August; 45(8):1132-40). Cells were cultured in RPMI-1640 growth media supplemented with 10% (v/v) foetal bovine serum (FBS) and 1% (v/v) antibiotics (penicillin (100 U/ml), streptomycin ([…])), in 75 cm2 sterile tissue culture flasks (Greiner bio-one, UK) maintained at 37° C. and 5% CO2 in a LEEC incubator (Laboratory technical engineering, Nottingham, UK). BRIN-BD11 cells were then seeded at a density of 150,000 cells/well in 24-well plates (Nunc, Roskilde, Denmark) and allowed to attach overnight at 37° C.

Assay [2] has as its system high fat fed mice. Kind of assay: Insulin sensitivity test and HOMA-IR after 21 days treatment. The assay is classed as in vivo. As to the method:
as §1, with “GmbH).” for “GmbH). Blood samples were collected from the cut tip on the tail vein of conscious mice into chilled fluoride/heparin glucose micro-centrifuge tubes (Sarstedt, Numbrecht, Germany) at the time points indicated in the Drawings. Blood glucose was measured directly using a hand-held Ascencia Contour blood glucose meter (Bayer Healthcare, Newbury, Berkshire, UK).”

The next assay concerns lean control mice. Kind of assay: Acute and persistent glucose lowering and insulin releasing effects in lean control mice. The assay is classed as in vivo. The procedure:
All animal experiments were carried out in accordance with the UK Animals (Scientific Procedures) Act 1986. For food intake studies, fasted (18 h) mice were given intraperitoneal (i.p) injections of polypeptides at a dose of 25, 100 or 250 nmol/kg bw. Mice were then allowed free access to normal chow for 180 mins and cumulative food intake measured. […] Blood samples were collected from the cut tip on the tail vein of conscious mice into chilled fluoride/heparin glucose micro-centrifuge tubes (Sarstedt, Numbrecht, Germany) at the time points indicated in the Drawings. Blood glucose was measured directly using a hand-held Ascencia Contour blood glucose meter (Bayer Healthcare, Newbury, Berkshire, UK).

Setting [3] is: 25 nmol/kg 4 h before glucose 18 mmol/kg, vs saline.

Take `CC[C@H](C)[C@H](NC(=O)[C@H](CO)NC(=O)[C@H](Cc1ccc(O)cc1)NC(=O)[C@H](CC(=O)O)NC(=O)[C@H](CO)NC(=O)[C@@H](NC(=O)[C@H](Cc1ccccc1)NC(=O)[C@@H](NC(=O)CNC(=O)[C@H](CCC(=O)O)NC(=O)[C@@H](C)NC(=O)[C@@H](N)Cc1ccc(O)cc1)[C@@H](C)O)[C@@H](C)CC)C(=O)N[C@@H](C)C(=O)N[C@@H](CCSC)C(=O)N[C@@H](CC(=O)O)C(=O)N[C@@H](CCCCN)C(=O)N[C@H](C(=O)N[C@@H](Cc1c[nH]cn1)C(=O)N[C@@H](CCC(N)=O)C(=O)N[C@@H](CCC(N)=O)C(=O)N[C@@H](CC(=O)O)C(=O)N[C@@H](Cc1ccccc1)C(=O)N[C@H](C(=O)N[C@@H](CC(N)=O)C(=O)N[C@@H](Cc1c[nH]c2ccccc12)C(=O)N[C@@H](CC(C)C)C(=O)N[C@@H](CC(C)C)C(=O)N[C@@H](C)C(=O)N[C@@H](CCC(N)=O)C(=O)N[C@@H](CCCCN)C(=O)NCC(=O)N[C@@H](CCCCN)C(=O)N[C@@H](CCCCN)C(=O)N[C@@H](CC(N)=O)C(=O)N[C@@H](CC(=O)O)C(=O)N[C@@H](Cc1c[nH]c2ccccc12)C(=O)N[C@@H](CCCCN)C(=O)N[C@@H](Cc1c[nH]cn1)C(=O)N[C@@H](CC(N)=O)C(=O)N[C@H](C(=O)N[C@H](C(=O)N[C@@H](CCC(N)=O)C(=O)O)[C@@H](C)O)[C@@H](C)CC)C(C)C)[C@@H](C)CC` [(DAla2)GIP, TYR-(d)ALA-GLU-GLY-THR-PHE-ILE-SER-ASP-TYR-SER-ILE-ALA-MET-ASP-LYS-ILE-HIS-GLN-GLN-ASP-PHE-VAL-ASN-TRP-LEU-LEU-ALA-GLN-LYS-GLY-LYS-LYS-ASN-ASP-TRP-LYS-HIS-ASN-ILE-THR-GLN]: the “Pancreatic islet area and beta cell area” value in the assay on high fat fed mice [1] (21 days twice daily 25 nmol/kg) was “no significant effect”. Moreover, the “Pancreatic alpha cell area” value with high fat fed mice [1] (21 days twice daily 25 nmol/kg, vs high fat controls) is “decreased (P<0.001)”. Moreover, in the assay on high fat fed mice [1] (21 days, vs all other groups of mice), the “Number of islets per mm2” value was “significantly (P<0.05 to P<0.01) augmented”. The “Insulin secretion from BRIN-BD11 cells” value in the assay on BRIN-BD11 cells (10^−6 mol/l peptide, 20 min, vs 5.6 and 16.7 mmol/l glucose control) was “significantly (P<0.05 to P<0.001) stimulated insulin secretion”. The “Insulin release from BRIN-BD11 cells” value in the assay on BRIN-BD11 cells (10^−8 M peptide, vs 5.6 and 16.7 mmol/l glucose controls respectively) was “significant (P<0.001 and P<0.01; respectively) increases in insulin release”. For the same compound, the HOMA-IR insulin sensitivity result in the assay with high fat fed mice [2] (21 days treatment, vs high fat controls) is on record as “significantly (P<0.05) improved insulin sensitivity”. Moreover, in the assay with high fat fed mice [2] (insulin 15 U/kg i.p., day 21, vs high fat controls), the “Individual blood glucose levels following exogenous insulin” value is recorded as “reduced, albeit non-significantly”. Moreover, the “Overall glucose lowering effect of insulin (blood glucose AAC 0-60 min)” value in the assay with high fat fed mice [2] (insulin 15 U/kg i.p., day 21, vs saline control high fat mice) is reported as “significantly (P<0.001) improved”. Moreover, in the assay on lean control mice (setting [3]), the “Overall AUC blood glucose, peptide 4 h prior to glucose load” value is listed as “significantly reduced” and the “Plasma insulin AUC, peptide 4 h prior to glucose load” value is listed as “increased plasma insulin AUC values (P<0.05)”. For the same compound, the “Blood glucose at 15 min post-injection” value with lean control mice (25 nmol/kg with glucose 18 mmol/kg i.p.) is recorded as “significant (P<0.05) reduction in blood glucose levels”. Moreover, the “Blood glucose at 30 min post injection” value in the assay with lean control mice (25 nmol/kg with glucose 18 mmol/kg i.p., non-fasted mice, vs glucose alone) is recorded as “significantly (P<0.05) lowered blood glucose values”. The “Overall 0-105 min AUC blood glucose” value in the assay on lean control mice (25 nmol/kg with glucose 18 mmol/kg i.p., vs glucose alone) is on record as “significantly (P<0.05) decreased”.

Source of the values: US11738065B2, “Polypeptides and analogues thereof for use in the treatment of diabetes and bone disorders” (UNIVERSITY OF ULSTER, priority 2015, dated 2023).
